In article PMC10703884, “Targeting the COMMD4–H2B protein complex in lung cancer” (British Journal of Cancer, 2023):
No end group written: not given here.

How the values were obtained:
HBEC3-KT cells = experiment: CellTiter-Glo 2.0 luminescent cell viability after IR, HBEC3-KT cells; format: cell-based, Human; settings: CellTiter-Glo 2.0, 48 h post-irradiation, three independent experiments
Experimental: (§1) H1299, CRL5889 and H460 cells were cultured in Roswell Park Memorial Institute (RPMI) 1640 medium (Life Technologies) containing 10% foetal bovine serum (Thermo Fisher Scientific). Human bronchial epithelial cells (HBEC3-KT) were maintained in keratinocyte serum-free medium supplemented with epidermal growth factor and bovine pituitary extract (Life Technologies). The histology features and origin of all cell lines used have been previously described. Cell lines were authenticated using STR profiling. Cells were grown in a humidified incubator at 37 °C/5% CO2 atmosphere. All cell lines were verified to be free of mycoplasma contamination.
(§2) Irradiations were done at room temperature using a ^137Cs source (Gammacell 40 Exactor [MDS Nordion]; dose rate 1.1 Gy/min). […]
(§3) For siRNA transfections, cells were transfected with negative control or COMMD4 siRNA #2 (CCAUGUCCCUCUCAGCAGA[dT][dT] MISSION® siRNA, Sigma-Aldrich) using RNAiMax (Life Technologies) as previously described and samples were analysed 48 to 72 h post-transfection. […] Cells were mock-transfected, or transfected with FLAG-H2BWT/FLAG-H2BMUT1, or COMMD4-FLAG/A70K with FuGENE® HD (Promega) using the manufacturer’s protocol and analysed 24 h post-transfection.
(§4) A CellTiter-Glo 2.0 Luminescent assay (Promega Corporation) was carried out as previously described. […] Luminescence was measured using a PHERAstar FSX detection system (BMG Labtech). […]

[1] = test system: H460, H1299 and CRL5889 NSCLC cells; experiment: Clonogenic cell viability after IR, NSCLC cells; format: cell-based; settings: varying IR doses, 7–10 days recovery, three independent experiments, compared to control siRNA or FLAG-H2BMUT1/mock
Experimental: as §1
Irradiations were done at room temperature using a ^137Cs source (Gammacell 40 Exactor [MDS Nordion]; dose rate 1.1 Gy/min). Phalloidin-Atto 488 was purchased from Sigma-Aldrich and Hoechst 33342 was purchased from Thermo Fisher Scientific.
For siRNA transfections, cells were transfected with negative control or COMMD4 siRNA #2 (CCAUGUCCCUCUCAGCAGA[dT][dT] MISSION® siRNA, Sigma-Aldrich) using RNAiMax (Life Technologies) as previously described and samples were analysed 48 to 72 h post-transfection. […] Cells were mock-transfected, or transfected with FLAG-H2BWT/FLAG-H2BMUT1, or COMMD4-FLAG/A70K with FuGENE® HD (Promega) using the manufacturer’s protocol and analysed 24 h post-transfection. […]

[2] = test system: H460, H1299 and CRL5889 NSCLC cells; experiment: Annexin V-FITC / propidium iodide apoptosis, NSCLC cells; format: cell-based; settings: flow cytometry, three independent experiments
Experimental: For siRNA transfections, cells were transfected with negative control or COMMD4 siRNA #2 (CCAUGUCCCUCUCAGCAGA[dT][dT] MISSION® siRNA, Sigma-Aldrich) using RNAiMax (Life Technologies) as previously described and samples were analysed 48 to 72 h post-transfection. The H2B wild-type (FLAG-H2BWT) and mutant (FLAG-H2BMUT1) expression constructs were generated with the 10-amino acid peptide and the corresponding mutant cloned into the expression vector pCDNA3.1/(+)-N-DYK containing an N-terminal FLAG tag and a C-terminal nuclear localisation signal (AAKRVKLDS) (GenScript). […] Cells were mock-transfected, or transfected with FLAG-H2BWT/FLAG-H2BMUT1, or COMMD4-FLAG/A70K with FuGENE® HD (Promega) using the manufacturer’s protocol and analysed 24 h post-transfection.
The Annexin V-FITC apoptosis kit (United Bioresearch, ALX-850-020-K101, Enzo Life Sciences, Farmingdale, NY, USA) was used to measure viable and apoptotic cells, as previously described. […] CytExpert 2.0 software was used for data acquisition and analysed using the FlowJo v10 software.
Fig. 5 Induction of mitotic catastrophe and apoptosis in NSCLC cells. a Emerin and phalloidin staining respectively in three NSCLC and control HBEC3-KT cells. […] Asterix (*) denotes *P < 0.05 and ** P < 0.005 from 100 cells counted. […] The live cells were stained with Annexin V-FITC and propidium iodide and analysed by flow cytometer. […]

[3] = test system: H460, H1299 and CRL5889 NSCLC cells; experiment: CellTiter-Glo 2.0 luminescent cell viability after IR, NSCLC cells; format: cell-based; settings: CellTiter-Glo 2.0, 48 h post-irradiation, three independent experiments
Experimental: as §1, §2, §3, §4

## FLAG-H2BWT: 10-amino acid peptide cloned into expression vector containing an N-terminal FLAG tag and a C-terminal nuclear localisation signal ({FLAG}-SFVNDIFERIAAKRVKLDS)
HBEC3-KT cells
  sensitivity to ionising radiation (luminescent viability): not hypersensitive
[1]
  sensitivity to ionising radiation (clonogenic viability): resulted in a similar phenotype to COMMD4 siRNA depletion, albeit less pronounced, where hypersensitivity to IR was observed relative to cells expressing the mutant peptide (FLAG-H2BMUT1)
[2]
  early and late apoptosis: significantly increased early and late apoptosis compared to FLAG-H2BMUT1 and mock-transfected cells
[3]
  sensitivity to ionising radiation (luminescent viability): hypersensitive to IR compared to FLAG-H2BMUT1 and mock-transfected cells
